Like-named read-outs stand apart in the source and are kept apart here.
Experiments:
KBM5 cells = assay: Growth inhibition of KBM5 cells by STI and IFN-α; assay type: cell-based; conditions: ST1571 0.5, 1.0, 2.0 tmol; IFNα 2,000, 5,000, 10,000 U
Source text: (§1) The effects of IFNA and ST1571 on STI-resistant KBM5 cells were studied.

KBM5-STI cells = assay: Growth inhibition of STI-resistant KBM5 cells by STI and IFN-α; assay type: cell-based; conditions: for Growth inhibition of KBM5-STI cells: ST1571 0.5, 1.0, 2.0 tmol, IFNα 2,000, 5,000, 10,000 U
Source text: as §1

CML = conditions: cited from earlier work
melanoma = conditions: cited from earlier work
MFP-regulated promoter = assay: MFP dependent induction of IFN-α from AAV-infected MSC (ELISA); assay type: cell-based, human; conditions: MSC infected with MFP regulated AAV
Description: Regulated expression from a drug inducible AAV vector. An AAV construct was used that expressed IFN-α under the control of a MFP-regulated promoter, to infect normal donor MSC in vitro. Briefly, MSC were infected with 10^3 GE of AAV-IFN-α and 10^3 GE of AAV-gal4prlMFP, and expanded for 10 additional days. These cells were subcultured into 12 well dished were MFP (dissolved in 0.1% ETOH) or solvent carrier was added at the concentrations noted. MSC infected w/ the MFP regulated AAV, express IFN-α only after 18 h exposure to MFP (FIG. 4A). Three drug concentrations were tested, each dose was 10-fold less than the previous one, and with the initial dose of 10^−7 M being 3 logs less than the dose commonly given for chemical abortions in humans. Of note is that a one-time addition of MFP results in a prolonged 8-10 day expression of IFN-α, peaking at 4-5 days after drug addition. […] Ten days after IFN-α level reached background activity we waited 3 additional days and added another dose of 10^-8 M MFP. […]
Exemplary methods for harvesting, culture, and infection of MSC. […] Forty-eight hours later cells are analyzed for βgal expression using X-gal histochemical staining or analysis with FACS utilizing CM-FDG, as in Marini et al. (1999). […] Six to 24 h later, supernatant is collected and analyzed via Quantikine IFN-α ELISA (Biosource International Inc Camarillio Calif.).

[1] = Systemic expression of IFN-α after intramuscular injection of AAV in mice (ELISA); assay type: in vivo, mouse; conditions: one application of MFP given IP, mice injected with inducible AAVs
Description: In vivo testing. To initiate a in vivo culture model of CML, two BCR-ABL+ cell lines, the K562 (which grow extramedullary in nu/nu mice) or BV173 (which grows intra bone marrow in BalbC/nu mice) were injected into respective mice. […] Utilizing the BV173 cell line we tested three cell doses and found one million BV173 cells were sufficient to kill the mice within 45 days, whereas 5×10^5 BV173 cells allowed the mice to survive for 60+ days with one mice still surviving. […] As an alternative to using MSCs as a cell based therapy, the AAV vectors may be directly inject into the muscle, thereby allowing secretion of IFN-α systemically. Evaluation of this route of delivery was performed by an intramuscular injection of […] AAV-CMV-IFN-α or 5×10^10 GE of AAV-Gal4hPRL-65AD and 5×10^10 GE of AAV-G5E-IFN-α into the quadriceps of mice. Mice were bled weekly and the serum was analyzed for IFN-α expression using the Biosource ELISA kit. As shown in FIG. 9 circulating levels of hIFN-α was detected in the peripheral blood, and more importantly, it was identified over the high background level seen in these nu/nu animals. […] Using this mouse model circulating levels of human IFN-α were detected. Human MSC may also be detected using molecular, fluorescent, and immunohistochemical approaches.

MSC = assay: Effect of MDA7 on growth of the MSC; assay type: cell-based; conditions: MSC growth not affected
Description: MSC were infected with a β-gal MDA7 adenovirus provided by Dr. Sunil Chada (Introgen, Houston, Tex.) at 50, 500, 5,000, and 25,000 MOI. All experiments were performed in duplicate supernatant from control and MDA7-MSC was obtained and added to KBM5 and KBM5-STI cells and assayed at 24 and 72 hours. Co-cultures of β-gal MDA7-MSC and control MSC with KBM5 (STI-sensitive) and KBM5-STI (STI-resistant) cells were also performed, with the MSC growing to near-confluency and 0.125×10^6 cells/mL plated on the MSC in 12 well plates. All wells were assayed at 24 and 72 hours.

[2] = patients with chronic phase CML

Molecule: IFNα
- Growth inhibition of KBM5 cells (KBM5 cells): pronounced growth inhibitory effects
- Growth inhibition of KBM5-STI cells (KBM5-STI cells): but not on KBM5-STI cells
- Enhancement of the STI effect by IFNα (KBM5-STI cells; in vitro, KBM5 and KBM5-STI cells): did not enhance the STI effect
- CCR's lost (CML; CML patients at 5 years): 42%
- CCR's lost (CML; CML patients at 8 years): 50%
- Patients able to maintain high concentrations (CML; patients who received INFα for CML): less than 30%
- Overall response rate (melanoma; advanced melanoma): 20%
- Improvement in the fraction of patients who are disease-free (melanoma; high risk melanoma): 42%

Molecule: CC#C[C@]1(O)CC[C@H]2[C@@H]3CCC4=CC(=O)CCC4=C3[C@@H](c3ccc(N(C)C)cc3)C[C@@]21C [MFP, mifpristone]
- Time of peak IFN-α expression after drug addition (MFP-regulated promoter): 4 to 5 days
- Duration of IFN-α expression after a one-time addition of MFP (MFP-regulated promoter; 18 h exposure): 8 to 10 days
- Period over which the single peak of IFN-α activity decays [1]: 7 days

Molecule: Cc1ccc(NC(=O)c2ccc(CN3CCN(C)CC3)cc2)cc1Nc1nccc(-c2cccnc2)n1 [ST1571]
- Growth inhibition of KBM5 cells (KBM5 cells): highly sensitive
- Growth inhibition of KBM5-STI cells (KBM5-STI cells): resistant
- Complete cytogenetic remissions (CML; [2]): 95%
- Hematological remission (CML; [2]): > 90%
- RT-PCR negativity (CML; [2]): 8%

B1: MDA7: melanoma differentiation associated protein 7, classified as interleukin-24 (protein, UniProt Q13007 52-206, looked up)
Interleukin-24: QEFHFGPCQVKGVVPQKLWEAFWAVKDTMQAQDNITSARLLQQEVLQNVSDAESCYLVHTLLEFYLKTVFKNYHNRTVEVRTLKSFSTLANNFVLIVSQLQPSQENEMFSIRDSAHRRFLLFRRAFKQLDVEAALTKALGEVDILLTWMQKFYKL
- Toxic effects on MSC (MSC): no toxic effects
